According to patent publication US20190209514A1, “Treatment of Bladder Cancer by Local Administration of Taxane Particles” (CRITITECH, INC., priority 2018, published 2019):
Several values for one entry are separate records, joined by “and”; a condition that tells them apart may be missing. Equal entries are not always repeated. Entries after “also recorded” stand apart in the source; their conditions may differ. Marks after values point to notes of the source that are not given here.

Experiments:
[1] = Docetaxel dissolution study, methanol/water 15/85, USP Apparatus II; type: physicochemical; settings: for Docetaxel Dissolution time course: methanol/water 15/85
Protocol: The procedures used to determine the dissolution rates are as follows. […] Beads were transferred to a stainless steel mesh container and placed in the dissolution bath containing methanol/water 50/50 (v/v) media at 37° C., pH 7, and a USP Apparatus II (Paddle), operating at 75 rpm. At 10, 20, 30, 60, and 90 minutes, a 5 mL aliquot was removed, filtered through a 0.22 μm filter and analyzed on a UV/VIS spectrophotometer at 227 nm. Absorbance values of the samples were compared to those of standard solutions prepared in dissolution media to determine the amount of material dissolved. […] At 5, 15, 30, 60, 120 and 225 minutes, a 5 mL aliquot was removed, filtered through a 0.22 μm filter, and analyzed on a UV/VIS spectrophotometer at 232 nm. Absorbance values of the samples were compared to those of standard solutions prepared in dissolution media to determine the amount of material dissolved.
At 5, 15, 30, 60, 120 and 225 minutes, a 5 mL aliquot was removed, filtered through a 0.22 μm filter, and analyzed on a UV/VIS spectrophotometer at 232 nm. Absorbance values of the samples were compared to those of standard solutions prepared in dissolution media to determine the amount of material dissolved.

[2] = Particle size analysis (light obscuration / laser diffraction); type: physicochemical
Excerpt: The particle size of the taxane particles can be determined by a particle size analyzer instrument and the measurement is expressed as the mean diameter based on a number distribution (number). A suitable particle size analyzer instrument is one which employs the analytical technique of light obscuration, also referred to as photozone or single particle optical sensing (SPOS). A suitable light obscuration particle size analyzer instrument is the ACCUSIZER, such as the ACCUSIZER 780 SIS, available from Particle Sizing Systems, Port Richey, Fla. Another suitable particle size analyzer instrument is one which employs laser diffraction, such as the Shimadzu SALD-7101.
Particle size was analyzed by both light obscuration and laser diffraction methods. An Particle Sizing Systems AccuSizer 780 SIS system was used for the light obscuration method and Shimadzu SALD-7101 was used for the laser diffraction method.
The vials were vortexed for approximately 10 seconds and then sonicated in a sonic bath approximately 1 minute.
The vial was vortexed for approximately 10 seconds and then sonicated in a sonic bath for approximately 2 minutes. This suspension was used for laser diffraction analysis. Unused suspension was poured into a 125 mL particle-free plastic bottle, which was then filled to approximately 100 mL with filtered dispersant. The suspension was vortex for approximately 10 seconds and then sonicated in the sonic bath for approximately 2 minutes. This diluted suspension was used for light obscuration analysis.
A background test was first performed prior to analyzing particles on the AccuSizer 780 SIS. A new particle-free plastic bottle was filled with blank suspension solution by pumping from a reservoir, using a peristaltic pump, through a 0.22 μm Millipore filter and into the bottle. A background analysis was run to ensure the particle/mL count was below 100 particles/mL. […] Once the analysis was completed, the background data was removed and any measurement with less than four counts was removed.
To analyze particles on SALD-7101 using a batch cell, the analysis was started by choosing Manual Measurement. The refractive index was set as 1.5 to 1.7. The batch cell was filled with filtered dispersant just past the etched line. The blank measurement was ran. […] The measurements were executed, and the resulting graph with the highest level of confidence was selected; background was automatically accounted for.

[3] = system: UM-UC-3 bladder cancer cell line (ATCC-CRL-1749) tumors; assay: Human bladder cancer (UM-UC-3) mouse xenograft study, tumor volume; type: in vivo, Hsd:Athymic Nude-Foxn1nu nude mice
Protocol: Tumor volume was determined with calipers. […] Animals were weighed 2×/week.
At day 18 after tumor implant, when average tumor size was between 50-325 mm^3, animals were sorted into five groups with equal average tumor sizes and were treated as shown in Table 8 below.
The second treatments (2nd cycle) occurred 7 days following first treatment (1st cycle) and third treatments (3rd cycle) occurred 14 days following the first treatment. The docetaxel solution IV was administered via the tail vein.
The test formulations were prepared as follows: • Vehicle (Control): Diluted 1 ml of the 1% Polysorbate 80/8% Ethanol in normal saline (0.9% Sodium Chloride for Injection) reconstitution solution with 1.5 mL of normal saline (0.9% Sodium Chloride for Injection, USP). […] Vigorously hand shook the vial with inversions for 1 minute. […] Vortexed to mix.
Tumor volumes were determined 2×/week for the duration of the study (61 days). The results of the study are shown in FIG. 4, FIG. 5, FIG. 6, FIG. 7, FIG. 8, FIG. 9, FIG. 10, FIG. 11, FIG. 12 & FIG. 13. […] These observations are also reflected in FIG. 5, FIG. 6, FIG. 7, FIG. 8, FIG. 9, FIG. 12 & FIG. 13.

[4] = system: UM-UC-3 bladder cancer cell line (ATCC-CRL-1749) tumors; assay: Xenograft study: histology (H&E) and immunohistochemistry of tumor site tissue; type: in vivo, Hsd:Athymic Nude-Foxn1nu nude mice
[5] = IV docetaxel 3 cycles; of 7 tumors measured; day of death or euthanasia
[6] = Bulk density (not tapped); type: physicochemical
Protocol: As used herein, the “specific surface area” (SSA) is the total surface area of the taxane particle per unit of taxane mass as measured by the Brunauer-Emmett-Teller (“BET”) isotherm by the following method: a known mass between 200 and 300 mg of the analyte is added to a 30 mL sample tube. […] The automated test is then carried out using the BETWIN® software package and the surface area of each sample is subsequently calculated. As will be understood by those of skill in the art, the “taxane particles” can include both agglomerated taxane particles and non-agglomerated taxane particles; since the SSA is determined on a per gram basis it takes into account both the larger agglomerated and smaller non-agglomerated taxane particles in the composition. The agglomerated taxane particles are defined herein as individual taxane particles that are formed by the agglomeration of smaller particles which fuse together forming the larger individual taxane particles, all of which occurs during the processing of the taxane particles. The BET specific surface area test procedure is a compendial method included in both the United States Pharmaceopeia and the European Pharmaceopeia. […]
The mass of the drug was measured to a nearest 0.1 mg, the volume was determined to the nearest 0.1 mL and the density calculated.

[7] = BET specific surface area (SSA); type: physicochemical
Protocol: As used herein, the “specific surface area” (SSA) is the total surface area of the taxane particle per unit of taxane mass as measured by the Brunauer-Emmett-Teller (“BET”) isotherm by the following method: a known mass between 200 and 300 mg of the analyte is added to a 30 mL sample tube. […] The automated test is then carried out using the BETWIN® software package and the surface area of each sample is subsequently calculated. As will be understood by those of skill in the art, the “taxane particles” can include both agglomerated taxane particles and non-agglomerated taxane particles; since the SSA is determined on a per gram basis it takes into account both the larger agglomerated and smaller non-agglomerated taxane particles in the composition. The agglomerated taxane particles are defined herein as individual taxane particles that are formed by the agglomeration of smaller particles which fuse together forming the larger individual taxane particles, all of which occurs during the processing of the taxane particles. […]
A known mass between 200 and 300 mg of the analyte was added to a 30 mL sample tube. […] The automated test was then carried out using the BETWIN® software package and the surface area of each sample was subsequently calculated.

[8] = Paclitaxel dissolution study, methanol/water 50/50, USP Apparatus II; type: physicochemical; settings: methanol/water 50/50 (v/v), 37° C., pH 7, paddle 75 rpm
Protocol: Beads were transferred to a stainless steel mesh container and placed in the dissolution bath containing methanol/water 50/50 (v/v) media at 37° C., pH 7, and a USP Apparatus II (Paddle), operating at 75 rpm. […] Absorbance values of the samples were compared to those of standard solutions prepared in dissolution media to determine the amount of material dissolved. […] Absorbance values of the samples were compared to those of standard solutions prepared in dissolution media to determine the amount of material dissolved.
Beads were transferred to a stainless steel mesh container and placed in the dissolution bath containing methanol/water 50/50 (v/v) media at 37° C., pH 7, and a USP Apparatus II (Paddle), operating at 75 rpm. At 10, 20, 30, 60, and 90 minutes, a 5 mL aliquot was removed, filtered through a 0.22 μm filter and analyzed on a U(V/V)is spectrophotometer at 227 nm. Absorbance values of the samples were compared to those of standard solutions prepared in dissolution media to determine the amount of material dissolved.

[9] = IV Docetaxel 3 cycles, 2 animals

## CC(=O)O[C@@]12CO[C@@H]1C[C@H](O)[C@@]1(C)C(=O)[C@H](O)C3=C(C)[C@@H](OC(=O)[C@H](O)[C@@H](NC(=O)OC(C)(C)C)c4ccccc4)C[C@@](O)([C@@H](OC(=O)c4ccccc4)[C@H]21)C3(C)C [Docetaxel Raw Material, docetaxel]
[1]; 0 minutes
  Docetaxel Dissolution time course: 0.0%
[1]; 5 minutes
  Docetaxel Dissolution time course: 3.2%
[1]; 15 minutes
  Docetaxel Dissolution time course: 6.9%
[1]; 30 minutes
  Docetaxel Dissolution time course: 11.2%
[1]; 60 minutes
  Docetaxel Dissolution time course: 16.4%
[1]; 120 minutes
  Docetaxel Dissolution time course: 22.4%
[1]; 225 minutes
  Docetaxel Dissolution time course: 26.8%
[1]; docetaxel, methanol/water 15/85 (v/v), 37° C., pH 7, paddle 75 rpm, 30 min
  Dissolution (30 min): 11%
[2]
  Number Mean (um): 1.58 um
  Volume Mean (um): 5.05 um

## CC(=O)O[C@@]12CO[C@@H]1C[C@H](O)[C@@]1(C)C(=O)[C@H](O)C3=C(C)[C@@H](OC(=O)[C@H](O)[C@@H](NC(=O)OC(C)(C)C)c4ccccc4)C[C@@](O)([C@@H](OC(=O)c4ccccc4)[C@H]21)C3(C)C [Docetaxel, docetaxel]
[3]; Docetaxel Solution 30 mg/kg IV, 3 weekly cycles, to Day 61
  tumor volume: Tumor volumes decreased initially; also recorded: subsequently increased; also recorded: somewhat effective at treating small tumors, but not very effective in treating large tumors
[3]; IV Docetaxel 3 cycles (B1, B3)
  Necropsy volume (mm^3), per animal: 2872 mm^3 and 1652 mm^3
[4]; Docetaxel Solution IV 3 cycles
  histology general observations (H&E): many viable appearing tumor masses with some macrophage and occasional lymphocytic response along with some tumor necrosis
[4]; IV Docetaxel 3 cycles (cases B1, B3)
  Maximum tumor size on slide / size of viable nodules (mm), per animal: 11 mm and 15 mm
[4]; [9]
  Macrophage infiltrate density (CD68): animals graded Mild: 2
  Maximum size of viable invasive carcinoma on the slide: animals with >10 mm: 2*
  Percentage of tumor showing necrosis: animals with 11-50%: 1
  Percentage of tumor showing necrosis: animals with 50-90%: 1
[5]
  tumors with docetaxel levels above the limit of quantitation (1 ng/g): 1

## CC(=O)O[C@H]1C(=O)[C@@]2(C)[C@H]([C@H](OC(=O)c3ccccc3)[C@]3(O)C[C@H](OC(=O)[C@H](O)[C@@H](NC(=O)c4ccccc4)c4ccccc4)C(C)=C1C3(C)C)[C@]1(OC(C)=O)CO[C@@H]1C[C@@H]2O [Paclitaxel Raw Material, paclitaxel]
[6]
  Bulk Density: 0.26 g/mL
[2]
  Number Mean (um): 1.16 um
  Volume Mean (um): 1.29 um
[7]; BET
  Surface Area (m^2/g): 10.4 m^2/g
[7]; Example 1 results text
  BET surface area: 7.25 m^2/g
[8]
  Dissolution (30 min): 18%
